From US20110183978A1, “Phenylpyri(mi)dinylazoles” (Bayer CropScience AG, priority 2009, published 2011)

Assay: physchem
Details: LogPA

Compound | chromatographic logP
CCn1cc(-c2ccnc(NC(=O)Cc3ccccc3)c2)c(-c2ccc(F)cc2)n1 [Compound 190] | 2.72
COCC(=O)Nc1cc(-c2cn(C3CCN(C(=O)OC(C)(C)C)CC3)nc2-c2ccc(F)cc2)ccn1 [Compound 204] | 3.51
CC(C)Cn1cc(-c2ccnc(N3CCCC3=O)c2)c(-c2ccc(F)cc2)n1 [Compound 187] | 3.19
CC(C)C(=O)Nc1cc(-c2cn(OC3CCCC3)nc2-c2ccc(F)cc2)ccn1 [Compound 270] | 3.65
CC(C)Cn1cc(-c2ccnc(N(C(=O)C(C)C)C(=O)C(C)C)n2)c(-c2ccc(F)cc2)n1 [Compound 188] | 4.74

The next lines start with the values.

chromatographic logP | Compound
2.41 | CCC(C)n1cc(-c2ccnc(NC(C)C)n2)c(-c2ccc(F)cc2)n1 (stereo not drawn) [Compound 360]
3.88 | CC(C)n1cc(-c2ccnc(NC(c3ccc(F)cc3)C(F)(F)F)c2)c(-c2ccc(F)cc2)n1 (stereo not drawn) [Compound 324]

Same assay, conditions: LogPA (logP of the stated pure compound or, in a mixture, of the main isomer, 1-substituted 3-aryl-1H-pyrazole)

chromatographic logP | Compound
1.38 | Nc1cc(-c2cn(C3CCCCO3)nc2-c2ccc(F)cc2)ccn1 (stereo not drawn) [Compound 39]
4.1 | CC(C)(C)C(=O)Nc1cc(-c2cn(C3CCCCO3)nc2-c2cccc(C(F)(F)F)c2)ccn1 (stereo not drawn) [Compound 48]
2.73 | Fc1ccc(-c2nn(-c3cc(C(F)(F)F)ncn3)cc2-c2ccncc2)cc1 [Compound 112]
2.4 | Fc1ccc(-c2nn(Cc3ccc(F)c(Oc4ccccc4)c3)cc2-c2ccncc2)cc1 [Compound 139]
1.31 | COc1ccc(-c2nn(C3CCCCO3)cc2-c2ccnc(N)c2)cc1 (stereo not drawn) [Compound 69]
1.09 | c1cnc2c(-c3c(-c4ccncc4)cnn3C3CCCCO3)cccc2c1 (stereo not drawn) [Compound 99, 8-[4-(pyridin-4-yl)-1-(tetrahydro-2H-pyran-2-yl)-1H-pyrazol-5-yl]quinoline]
1.42 | CCNc1cc(-c2cn(C3CCCCO3)nc2-c2ccc(F)cc2)ncn1 (stereo not drawn) [Compound 63]
2.02 | CC(C)(C)c1ccc(-c2c(-c3ccncc3)cnn2C2CCCCO2)cc1 (stereo not drawn) [Compound 57, 4-[5-(4-tert-butylphenyl)-1-(tetrahydro-2H-pyran-2-yl)-1H-pyrazol-4-yl]pyridine]
2.93 | NC(=O)c1cc(-c2cn(C3CCCCO3)nc2-c2cccc(Cl)c2)ccn1 (stereo not drawn) [Compound 95]

Same assay, conditions: pH 2.3, LogP (pH 2.3)

Compound | chromatographic logP
FC1(F)Oc2cccc(-c3c(-c4ccncc4)cnn3C3CCCCO3)c2O1 (stereo not drawn) [[X-4], 4-[5-(2,2-difluoro-1,3-benzodioxol-4-yl)-1-(tetrahydro-2H-pyran-2-yl)-1H-pyrazol-4-yl]pyridine] | 1.64
c1ccc(Oc2ccc(-c3c(-c4ccncc4)cnn3C3CCCCO3)cc2)cc1 (stereo not drawn) [[X-10], 4-[5-(4-phenoxyphenyl)-1-(tetrahydro-2H-pyran-2-yl)-1H-pyrazol-4-yl]pyridine] | 1.88

Next, values leading:

chromatographic logP | Compound
4.34 | CC(C)Cn1cc(Br)c(-c2ccc(F)cc2)n1 [[VI-4], 4-Bromo-3-(4-fluorophenyl)-1-isobutyl-1H-pyrazole]
5.51 | CC1(C)OB(c2cn(OC3CCCC3)nc2-c2ccc(F)cc2)OC1(C)C [[V-6], 1-(Cyclopentyloxy)-3-(4-fluorophenyl)-4-(4,4,5,5-tetramethyl-1,3,2-dioxaborolan-2-yl)-1H-pyrazole]
3.08 | COCCn1cc(Br)c(-c2ccc(F)cc2)n1 [[VI-6], 4-Bromo-3-(4-fluorophenyl)-1-(2-methoxyethyl)-1H-pyrazole]
0.98 | COCCn1cc(-c2ccnc(N)c2)c(-c2ccc(F)cc2)n1 [[III-2], 4-[3-(4-Fluorophenyl)-1-(2-methoxyethyl)-1H-pyrazol-4-yl]pyridin-2-amine]
1.33 | CN(C)c1cccc(-c2c(-c3ccncc3)cnn2C2CCCCO2)c1 (stereo not drawn) [[X-21], N,N-dimethyl-3-[4-(pyridin-4-yl)-1-(tetrahydro-2H-pyran-2-yl)-1H-pyrazol-5-yl]aniline]
1.88 | c1ccc(Oc2cccc(-c3c(-c4ccncc4)cnn3C3CCCCO3)c2)cc1 (stereo not drawn) [[X-16], 4-[5-(3-phenoxyphenyl)-1-(tetrahydro-2H-pyran-2-yl)-1H-pyrazol-4-yl]pyridine]
1.22 | CC(C)n1cc(-c2ccnc(N)c2)c(-c2ccc(F)cc2)n1 [[III-1], 4-[3-(4-Fluorophenyl)-1-isopropyl-1H-pyrazol-4-yl]pyridin-2-amine]
4.43 | CC(C1CC1)n1cc(Br)c(-c2ccc(F)cc2)n1 (stereo not drawn) [[VI-22], 4-Bromo-1-(1-cyclopropylethyl)-3-(4-fluorophenyl)-1H-pyrazole]
3.59 | Fc1ccc(-c2nn(C3CC3)cc2Br)cc1 [[VI-26], 4-Bromo-1-cyclopropyl-3-(4-fluorophenyl)-1H-pyrazole]

Same assay, conditions: pH 2.7, logP (pH 2.7)

Compound | chromatographic logP
CC(C)n1cc(-c2ccnc(NC(=O)C3CC3)c2)c(-c2ccc(F)cc2)n1 [[I-c-1], N-{4-[3-(4-Fluorophenyl)-1-isopropyl-1H-pyrazol-4-yl]pyridin-2-yl}cyclopropanecarboxamide] | 2.07
CCC(=O)Nc1cc(-c2cn(CCOC)nc2-c2ccc(F)cc2)ccn1 [[I-2], N-{4-[3-(4-Fluorophenyl)-1-(2-methoxyethyl)-1H-pyrazol-4-yl]pyridin-2-yl}propanamide] | 1.61

The remaining lines, values ahead:

chromatographic logP | Compound
4.34 | CC(C)Cn1cc(Br)c(-c2ccc(F)cc2)n1 [[VI-4], 4-Bromo-3-(4-fluorophenyl)-1-isobutyl-1H-pyrazole]
2.05 | CC(C)Nc1nccc(CC(=O)c2ccc(F)cc2)n1 [[XLIV-1], 1-(4-fluorophenyl)-2-[2-(isopropylamino)pyrimidin-4-yl]ethanone]
2.9 | CC(C)n1cc(-c2ccnc(S(C)(=O)=O)n2)c(-c2ccc(F)cc2)n1 [[XLI-1], 4-[3-(4-Fluorophenyl)-1-isopropyl-1H-pyrazol-4-yl]-2-(methylsulphonyl)pyrimidine]
1.54 | Fc1cccc(F)c1-c1n[nH]cc1-c1ccncc1 [[XXVII-1], 4-[3-(2,6-Difluorophenyl)-1H-pyrazol-4-yl]pyridine]
5.51 | CC1(C)OB(c2cn(OC3CCCC3)nc2-c2ccc(F)cc2)OC1(C)C [[V-6], 1-(Cyclopentyloxy)-3-(4-fluorophenyl)-4-(4,4,5,5-tetramethyl-1,3,2-dioxaborolan-2-yl)-1H-pyrazole]
2.35 | CCC(=O)Nc1nccc(-c2cn(C(C)C)nc2-c2ccc(F)cc2)n1 [[I-g-1], N-{4-[3-(4-Fluorophenyl)-1-isopropyl-1H-pyrazol-4-yl]pyrimidin-2-yl}propanamide]
1.38 | N#Cc1cccc(Cn2ncc(-c3ccncc3)c2-c2ccc(F)cc2)c1 [[I-4], 3-{[5-(4-Fluorophenyl)-4-(pyridin-4-yl)-1H-pyrazol-1-yl]methyl}benzonitrile]
0.62 | O=C(Cc1ccncc1)c1c(F)cccc1F [[XXV-1], 1-(2,6-Difluorophenyl)-2-(pyridin-4-yl)ethanone]
3.08 | COCCn1cc(Br)c(-c2ccc(F)cc2)n1 [[VI-6], 4-Bromo-3-(4-fluorophenyl)-1-(2-methoxyethyl)-1H-pyrazole]
0.98 | COCCn1cc(-c2ccnc(N)c2)c(-c2ccc(F)cc2)n1 [[III-2], 4-[3-(4-Fluorophenyl)-1-(2-methoxyethyl)-1H-pyrazol-4-yl]pyridin-2-amine]
3.62 | CSc1nccc(-c2cn(C(C)C)nc2-c2ccc(F)cc2)n1 [[XL-1], 4-[3-(4-Fluorophenyl)-1-isopropyl-1H-pyrazol-4-yl]-2-(methylsulphanyl)pyrimidine]
2.27 | O=C(Cc1ccnc(Cl)n1)c1ccc(F)cc1 [[XLIII-1], 2-(2-Chloropyrimidin-4-yl)-1-(4-fluorophenyl)ethanone]
1.22 | CC(C)n1cc(-c2ccnc(N)c2)c(-c2ccc(F)cc2)n1 [[III-1], 4-[3-(4-Fluorophenyl)-1-isopropyl-1H-pyrazol-4-yl]pyridin-2-amine]
4.43 | CC(C1CC1)n1cc(Br)c(-c2ccc(F)cc2)n1 (stereo not drawn) [[VI-22], 4-Bromo-1-(1-cyclopropylethyl)-3-(4-fluorophenyl)-1H-pyrazole]
3.59 | Fc1ccc(-c2nn(C3CC3)cc2Br)cc1 [[VI-26], 4-Bromo-1-cyclopropyl-3-(4-fluorophenyl)-1H-pyrazole]
0.6 | CN(C)C=C(C(=O)c1c(F)cccc1F)c1ccncc1 [[XXVI-1], 1-(2,6-Difluorophenyl)-3-(dimethylamino)-2-(pyridin-4-yl)prop-2-en-1-one]
